Laboratory results: patent US20120295960A1, “TREATMENT REGIMEN FOR PARKINSON'S DISEASE” (priority 2011, published 2012)

Test system: MPTP macaques
Test: Dyskinesia studies in drug-naive MPTP primates (video dyskinesia analysis, L-Dopa and apomorphine challenge)
Source text: Neurotoxin MPTP was first administrated to 23 macaques until they developed severe Parkinsonism, these were then divided into experimental groups according to the following experiments: • 1. […] The animals were then observed from 2 up to 44 months. A subset of these primates were included for histology, microdialysis, electrophysiology, and metabolism studies. • 2. […] For the latter group, five MPTP macaques received daily oral L-Dopa for 12 weeks (MPTP-L-Dopa group, n=5). • 3. In the third experiment the potential of dyskinesia induction in MPTP macaques was studied by challenging them with a short acting D1/D2 dopaminergic agonist, apomorphine, then with an acute oral dose of L-Dopa. […] Animals were then challenged with L-Dopa and the number of dyskinesias was assessed with a specific software (The Observer®, Noldus)
All animals were assessed daily for their general clinical condition with special attention paid to the nutritional status. At the same time, the general neurological state of each macaque was assessed both pre- and post-lentiviral injections. To objectively quantify our neurological observations, animals were video-taped for 30 minutes before MPTP lesioning and at regular intervals following viral injections. The videos were then analyzed off-line by an examiner blinded to the experimental conditions. […]

## CN1CCc2cccc3c2[C@H]1Cc1ccc(O)c(O)c1-3 [apomorphine]
MPTP-long term and MPTP-LacZ primates
  locomotor activity after acute administration: levels similar to that of normal primates
MPTP-long term and MPTP-Lenti-LacZ animals
  dyskinesia after acute administration: debilitating choreiform and dystonic movements
